According to patent publication US20080220056A1, “Treatment for liver disease” (UNIVERSITY OF SOUTHAMPTON, priority 2002, published 2008):

Columns and labels:
[1] = test system: rat hepatic stellate cells; experiment: TUNEL staining of cultured rat hepatic stellate cells; format: cell-based; details: 1.5 μmol/L gliotoxin, two hours
From the text: Rat and human hepatic stellate cells and rat liver tissue were fixed in 4% paraformaldehyde in PBS or 10% formalin in PBS, respectively, before being stained with Giemsa. DNA fragmentation was examined by labeling of 3′-OH DNA ends by the enzymatic addition of digoxygenin-labeled deoxyuridine triphosphate (dUTP) using terminal deoxynucleotidyl transferase using a kit from Boehringer essentially as described by the manufacturer. Rat liver tissue sections were pretreated with diethyl pyrocarbonate as described previously (Stahelin et al., J. Clin. Pathol. Mol. Pathol. (1998) 51:204-208) to reduce nonspecific reaction.
DNA strand breaks were also characterized by TUNEL staining. Culture-activated (14-day) rat hepatic stellate cells were treated with 0.05% (vol/vol) DMSO or 1.5 μmol/L gliotoxin for two hours and DNA strand breaks examined by TUNEL staining as outlined in Materials and Methods.

[2] = test system: mitochondrial permeability transition in rat hepatic stellate cells; experiment: Confocal microscopy of calcein/TMRM (mitochondrial permeability transition); format: cell-based; details: 1.5 μmol/L gliotoxin
Method: Intracellular calcium concentrations were examined by preloading activated hepatic stellate cells seeded onto 35-mm diameter dishes with 2.5 μmol/L Fluo-3AM for two hours. Mitochondrial integrity was determined by coloading cells with […] TMRM and 1 μmol/M calcein-AM for three hours. After loading, the culture medium was removed and the cells were washed extensively with confocal buffer (145 mmol/L NaCl, 5 mml/L KCl, 1 mmol/L MgSO4, 1 mmol/L NaH2PO4, 10 mmol/L HEPES, 25 mmol/L glucose, 1 mmol/L CaCl2 and 2 mg/mL bovine serum albumin, pH 7.4) and incubated at 37° C. in 2 mL confocal buffer containing 1.5 μmol/L gliotoxin or DMSO vehicle control.
Fluorescence images were collected at 1 μm intervals using an Olympus BX50WI microscope fitted with the Biorad microradiance confocal scanning system.
Fluo-3 and calcein fluorescence were excited at 488 nm and collected at 515-530 nm using a band width filter. TMRM was excited at 543 nm and collected at wavelengths greater than 570 nm.
Culture activated rat hepatic cells (14 day) were loaded with calcein (green fluorescence) and TMRM (red fluorescence) and then treated with either 0.05% (vol/vol) DMSO vehicle or alternatively 1.5 μmol/L gliotoxin. Green fluorescence and red fluorescence were imaged at regular time points as outlined in Materials and Methods and the results obtained were typical for at least three separate experiments.

[3] = test system: rat hepatic stellate cells; experiment: Low molecular weight DNA fragmentation (nucleosomal ladder) in rat hepatic stellate cells; format: cell-based; details: 37.5 μmol/L gliotoxin
[4] = test system: caspase 3 activity in rat hepatic stellate cells; experiment: Caspase 3 (Ac-DEVD-pNA cleavage) activity in rat hepatic stellate cells; format: cell-based; details: 1.5 μmol/L, three hours, versus DMSO control
Method: Hepatic stellate cells cultured in 100 mm diameter dishes (Greiner, Frickenhausen, Germany) were harvested and pelleted by centrifugation. The medium supernatant was discarded and the cell pellet was washed in 1 mL of ice-cooled phosphate buffered saline (PBS). Caspase 3 (DEVDase) activity was determined using a colorimetric CaspACE kit (Promega, Southampton, England) using the manufacturer's instructions.
Caspase 3 (Ac-DEVD-pNA cleavage) activity was then examined in control and gliotoxin-treated hepatic stellate cells. Culture activated rat hepatic stellate cells (14 days) in 100 mm diameter plates were treated with 0.05% (vol/vol) DMSO, 1.5 μmol/L gliotoxin, 20 μmol/L Z-VAD-FMK or 200 μmol/L chlorpromazine for three hours. The cells were then harvested for examination of caspase 3 activity as outlined in the materials and methods sections.

[5] = test system: human hepatic stellate cells; experiment: Hepatic stellate cell apoptosis by acridine orange staining and counting (cycloheximide or serum deprivation), human cells; format: cell-based; details: human hepatic stellate cells
Method: Human hepatic stellate cells were extracted from the margins of normal human liver resected for colonic metastatic disease as previously described (Iredale et al., Clin. Sci., (1995) 89: 75-81). Rat hepatic stellate cells were extracted from normal rat liver by Pronase and collagenase digestion and purified by centrifugal elutriation as described (Arthur et al., J. Clin. Invest., (1989) 84:1076-1085). Extracted hepatic stellate cells were cultured on plastic until they were activated to a myofibroblastic phenotype after 7 to 10 days. Human and rat hepatic stellate cells were used for experiments after activation in primary culture or before fourth passage. Cells were cultured in Dulbecco's modified Eagle's medium in the presence of 16% fetal calf serum and antibiotics.
Apoptosis of hepatic stellate cells was induced by absolute serum deprivation, cycloheximide treatment (Issa et al., Gut (2001) 48: S48-S57), or exposure to nerve growth factor as previously described (Trim et al., Am. J. Pathol., (2000) 156, 1235-1243). Hepatic stellate cells were cultured in 24-well tissue culture plates. […] Following a 4 hour incubation at 37° C., nuclear morphology was assessed by adding acridine orange to each well (final concentration 1 μg/ml) and observing the cells under blue fluorescence. The total number of apoptotic bodies was counted, and any apoptotic bodies floating in the supernatant were included by racking up the objective lens. The total number of cells per field was counted, and an apoptotic index was calculated. Each condition was performed in duplicate, and three high power fields were counted for each well. […] To examine for autocrine effects, hepatic stellate cells were incubated for 18 hours with azide-free polyclonal neutralizing antibodies to TIMP-1 and a nonimmune IgG control (Santa Cruz Biotechnology, Inc., Santa Cruz, Calif.), and responses were assessed by acridine orange staining and counting.
Apoptosis was assessed by acridine orange staining. […]

[6] = target: T1, recombinant human caspase-3 (Homo sapiens, UniProt P42574); experiment: Direct effect on recombinant caspase-3; format: biochemical; details: TIMP-1 285-2850 ng/ml, 1 hour preincubation
T1 construct: purchased Calbiochem
T1 sequence (P42574 29-175 limits assumed): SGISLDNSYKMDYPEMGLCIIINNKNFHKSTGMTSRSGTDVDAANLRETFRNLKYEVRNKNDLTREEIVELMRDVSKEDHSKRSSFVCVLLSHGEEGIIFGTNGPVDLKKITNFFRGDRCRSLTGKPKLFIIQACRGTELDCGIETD
T1 sequence (P42574 176-277 limits assumed): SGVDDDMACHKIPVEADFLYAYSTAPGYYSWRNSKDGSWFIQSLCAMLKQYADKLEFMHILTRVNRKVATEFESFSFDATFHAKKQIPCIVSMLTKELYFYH
Method: Apoptosis was quantified by a colorimetric assay for caspase-3 activity (Promega) according to the manufacturer's instructions.
To exclude a direct effect of TIMP-1 on caspase-3 activity, recombinant human caspase-3 (Calbiochem) was incubated with TIMP-1 in varying concentrations (285-2850 ng/ml) for 1 hour before caspase-3 substrate was added to the reaction.

Row | Compound | TUNEL staining [1] | TMRM fluorescence (mitochondrial permeability) [2] | level of DNA cleavage at high concentration versus lower concentrations [3] | increase in caspase 3 activity [4] [fold] | apoptosis of human HSC (cycloheximide 4 h or serum deprivation 18 h) [5] | direct effect on caspase-3 activity [6]
1 | CN1C(=O)[C@]23CC4=CC=C[C@H](O)[C@H]4N2C(=O)[C@@]1(CO)SS3 [gliotoxin] | extensive TUNEL-positive staining | loss of TMRM fluorescence at four hours | reduction in the level of DNA cleavage detected | 7.6 |  | 
2 | TIMP-1: recombinant tissue inhibitor of matrix metalloproteases 1 (Biogenesis) |  |  |  |  | identical antiapoptotic effects | did not reduce caspase-3 activity directly
